Test results published in EPA's ToxRefDB 2.

Key:
rabbit [1] = conditions: Prenatal developmental toxicity study; new zealand white; Oral; Gavage/Intubation; dose end: 18 GD; group: maternal; systemic / in life observation / body weight / body weight gain
rat [2] = conditions: Prenatal developmental toxicity study, sprague dawley, Oral, Gavage/Intubation, dose end: 17 GD
dog [3] = conditions: Sub-acute repeat dose toxicity, beagle, Oral, Gavage/Intubation, dose end: 1 month, group: systemic
rat [4] = conditions: Subchronic oral toxicity in rodents, sprague dawley, Gavage/Intubation, dose end: 13 week, group: systemic
rat [5] = conditions: Chronic toxicity; sprague dawley; Oral; Gavage/Intubation; dose end: 6 month; group: systemic; systemic / clinical chemistry / phosphorus / phosphorus + systemic / clinical chemistry / potassium / potassium + systemic / organ weight / …
rabbit [6] = conditions: Prenatal developmental toxicity study; himalayan; Oral; Gavage/Intubation; dose end: 12 GD; group: maternal; systemic / in life observation / body weight / body weight gain + systemic / in life observation / food consumption / food consumption
dog [7] = conditions: Chronic toxicity; beagle; Oral; Gavage/Intubation; dose end: 12 month; group: systemic; systemic / hematology / erythrocyte (rbc) count differential / erythrocyte (rbc) + systemic / hematology / hematocrit (hct) / hematocrit (…
dog [8] = conditions: Chronic toxicity; beagle; Oral; Gavage/Intubation; dose end: 6 month; group: systemic; systemic / hematology / anisocytosis / anisocytosis + systemic / hematology / jolly bodies / jolly bodies + systemic / hematology / myeloid/…
rat [9] = conditions: Sub-acute repeat dose toxicity, sprague dawley, Oral, Gavage/Intubation, dose end: 28 day, group: systemic
rabbit [10] = conditions: Prenatal developmental toxicity study, himalayan, Oral, Gavage/Intubation, dose end: 18 GD, group: maternal
mouse = conditions: Subchronic oral toxicity in rodents, cd1, Gavage/Intubation, dose end: 13 week, group: systemic
rat [11] = conditions: Fertility (Segment I), sprague dawley, Oral, Gavage/Intubation, dose end: 6 PND
rabbit [12] = conditions: Prenatal developmental toxicity study, himalayan, Oral, Gavage/Intubation, dose end: 18 GD
[13] = group: developmental, developmental / developmental malformation / bone / delayed ossification + developmental / developmental malformation / bone / unossified
[14] = group: maternal, systemic / in life observation / body weight / body weight gain + systemic / in life observation / food consumption / food consumption
[15] = group: maternal, systemic / in life observation / body weight / body weight gain + systemic / in life observation / food consumption / food consumption + …
[16] = systemic / hematology / [other] / [other] + systemic / hematology / erythrocyte (rbc) count differential / erythrocyte (rbc) + systemic / …
[17] = systemic / hematology / erythrocyte (rbc) count differential / erythrocyte (rbc) + systemic / hematology / hematocrit (hct) / hematocrit (…
[18] = systemic / clinical chemistry / phosphorus / phosphorus + systemic / clinical chemistry / potassium / potassium + systemic / clinical …
[19] = systemic / clinical chemistry / phosphorus / phosphorus + systemic / clinical chemistry / urea nitrogen / urea nitrogen + systemic / …
[20] = systemic / clinical chemistry / creatinine / creatinine + systemic / clinical chemistry / glucose / glucose + systemic / clinical chemistry…
[21] = systemic / clinical chemistry / creatinine / creatinine + systemic / clinical chemistry / potassium / potassium + systemic / clinical …
[22] = systemic / in life observation / body weight / body weight gain + systemic / in life observation / food consumption / food consumption
[23] = systemic / in life observation / body weight / body weight gain + systemic / in life observation / food consumption / food consumption + …
[24] = systemic / clinical chemistry / urea nitrogen / urea nitrogen + systemic / hematology / hemoglobin (hgb) / hemoglobin (hgb) + systemic / …
[25] = group: maternal, reproductive / reproductive performance / estrous cycle / corpora lutea + reproductive / reproductive performance / implantations / …
[26] = group: parental, systemic / in life observation / body weight / body weight gain + systemic / in life observation / clinical signs / fur (altered appearance…
[27] = group: parental, systemic / in life observation / body weight / body weight gain + systemic / in life observation / food consumption / food efficiency
[28] = group: developmental, developmental / developmental malformation / limb / [other] + systemic / in life observation / body weight / fetal weight
[29] = group: maternal, reproductive / reproductive performance / aborted / aborted + reproductive / reproductive performance / premature delivery / premature …

Compound: Cc1cccc(C)c1NC(=O)CC12CCCN1CCC2.Cl [Pilsicainide hydrochloride]
- LEL (rabbit [1]): 10 mg/kg/day
- LOAEL (rabbit [1]): > 20 mg/kg/day
- NEL (rabbit [1]): 5 mg/kg/day
- NOAEL (rabbit [1]): ≥ 20 mg/kg/day

Compound: CC(=O)S[C@H](C(=O)N[C@H]1Cc2ccccc2[C@H]2CCC[C@@H](C(=O)O)N2C1=O)C(C)C [Ilepatril]
- LEL (rat [2]; [13]): 300 mg/kg/day
- LOAEL (rat [2]; [13]): 300 mg/kg/day
- NEL (rat [2]; [13]): 30 mg/kg/day
- NOAEL (rat [2]; [13]): 30 mg/kg/day
- LEL (rat [2]; [14]): 300 mg/kg/day
- LOAEL (rat [2]; [14]): 300 mg/kg/day
- NEL (rat [2]; [15]): 30 mg/kg/day
- NOAEL (rat [2]; [15]): 30 mg/kg/day
- LOAEL (dog [3]; [16]): 50 mg/kg/day
- NOAEL (dog [3]; [16]): 10 mg/kg/day
- LEL (dog [3]; [17]): 10 mg/kg/day
- NEL (dog [3]; [17]): < 10 mg/kg/day
- LOAEL (rat [4]; [18]): > 1600 mg/kg/day
- NOAEL (rat [4]; [18]): ≥ 1600 mg/kg/day
- LEL (rat [4]; [19]): 400 mg/kg/day
- NEL (rat [4]; [19]): < 400 mg/kg/day
- LEL (rat [5]): 10 mg/kg/day
- LOAEL (rat [5]): > 1000 mg/kg/day
- NEL (rat [5]): < 10 mg/kg/day
- NOAEL (rat [5]): ≥ 1000 mg/kg/day
- LEL (rabbit [6]): 0.8 mg/kg/day
- LOAEL (rabbit [6]): > 2 mg/kg/day
- NEL (rabbit [6]): 0.32 mg/kg/day
- NOAEL (rabbit [6]): ≥ 2 mg/kg/day
- LEL (dog [7]): 12 mg/kg/day
- LOAEL (dog [7]): > 12 mg/kg/day
- NEL (dog [7]): 6 mg/kg/day
- NOAEL (dog [7]): ≥ 12 mg/kg/day
- LEL (dog [8]): 30 mg/kg/day
- LOAEL (dog [8]): > 30 mg/kg/day
- NEL (dog [8]): 10 mg/kg/day
- NOAEL (dog [8]): ≥ 30 mg/kg/day
- LOAEL (rat [9]; [20]): > 1000 mg/kg/day
- NOAEL (rat [9]; [20]): ≥ 1000 mg/kg/day
- LEL (rat [9]; [21]): 30 mg/kg/day
- NEL (rat [9]; [21]): < 30 mg/kg/day
- LEL (rabbit [10]; [22]): 0.8 mg/kg/day
- LOAEL (rabbit [10]; [22]): 0.8 mg/kg/day
- NEL (rabbit [10]; [23]): 0.32 mg/kg/day
- NOAEL (rabbit [10]; [23]): 0.32 mg/kg/day
- LOAEL (mouse; [21]): > 1600 mg/kg/day
- NOAEL (mouse; [21]): ≥ 1600 mg/kg/day
- LEL (mouse; [24]): 400 mg/kg/day
- NEL (mouse; [24]): < 400 mg/kg/day
- LEL (rat [11]; [25]): 1000 mg/kg/day
- LOAEL (rat [11]; [25]): > 1000 mg/kg/day
- NEL (rat [11]; [25]): 100 mg/kg/day
- NOAEL (rat [11]; [25]): ≥ 1000 mg/kg/day
- LOAEL (rat [11]; [26]): > 1000 mg/kg/day
- NOAEL (rat [11]; [26]): ≥ 1000 mg/kg/day
- LEL (rat [11]; [27]): 10 mg/kg/day
- NEL (rat [11]; [27]): < 10 mg/kg/day
- LEL (rabbit [12]; group: developmental, developmental / developmental malformation / limb / [other]): 3.2 mg/kg/day
- LOAEL (rabbit [12]; [28]): > 160 mg/kg/day
- NEL (rabbit [12]; [28]): 1 mg/kg/day
- NOAEL (rabbit [12]; [28]): ≥ 160 mg/kg/day
- LOAEL (rabbit [12]; [29]): > 160 mg/kg/day
- NOAEL (rabbit [12]; [29]): ≥ 160 mg/kg/day
- LEL (rabbit [12]; [14]): 1 mg/kg/day
- NEL (rabbit [12]; [14]): < 1 mg/kg/day
